This experiment deals with L1210 leukemia ip in BDF1 mice, survival T/C. Nature of the experiment: NCI In Vivo Anticancer Drug Screen. Data for tumor model L1210 Leukemia (intraperitoneal) in B6D2F1 (BDF1) mice. As to conditions: endpoint: mean survival time, higher = longer survival. In a few lines:
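Each compound was tested against a transplantable tumor grown in mice. The endpoint was survival, with treated animals benchmarked against vehicle controls as a simple ratio.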

Setting [1] is: dose: 100.0 mg/kg/injection, schedule: Q04DX003 (ip), vehicle: Klucel (hydroxypropylcellulose) (HPC).
[2] abbreviates: dose: 200.0 mg/kg/injection, schedule: Q04DX003 (ip), vehicle: Klucel (hydroxypropylcellulose) (HPC).
Where [3] appears, read: dose: 400.0 mg/kg/injection, schedule: Q04DX003 (ip), vehicle: Klucel (hydroxypropylcellulose) (HPC).
Setting [4] is: dose: 100.0 mg/kg/injection, schedule: Q01DX009 (ip), vehicle: Klucel (hydroxypropylcellulose) (HPC).
[5] abbreviates: dose: 200.0 mg/kg/injection, schedule: Q01DX009 (ip), vehicle: Klucel (hydroxypropylcellulose) (HPC).
[6] abbreviates: dose: 400.0 mg/kg/injection, schedule: Q01DX009 (ip), vehicle: Klucel (hydroxypropylcellulose) (HPC).
Setting [7] is: dose: 100.0 mg/kg/injection, schedule: Q01DX009 (ip), vehicle: saline with Tween-80.
Where [8] appears, read: dose: 100.0 mg/kg/injection, schedule: Q04DX003 (ip), vehicle: saline with Tween-80.
The mark [9] stands for this setting: dose: 200.0 mg/kg/injection, schedule: Q01DX009 (ip), vehicle: saline with Tween-80.
Where [10] appears, read: dose: 200.0 mg/kg/injection, schedule: Q04DX003 (ip), vehicle: saline with Tween-80.
The mark [11] stands for this setting: dose: 400.0 mg/kg/injection, schedule: Q01DX009 (ip), vehicle: saline with Tween-80.
[12] abbreviates: dose: 400.0 mg/kg/injection, schedule: Q04DX003 (ip), vehicle: saline with Tween-80.

Here are results for 22 molecules from PubChem BioAssay AID248 (DTP/NCI, 2004).

Toxic doses and inconclusive results are not listed.

On to `CN(c1ccccc1Cl)c1ccccc1Cl`, for which the T/C (dose: 64.0 mg/kg/injection, schedule: Q04DX002 (ip), vehicle: saline with Tween-80) was 104 % of control; the T/C (dose: 160.0 mg/kg/injection, schedule: Q04DX002 (ip), vehicle: saline with Tween-80) is 89 % of control; the T/C (dose: 400.0 mg/kg/injection, schedule: Q04DX002 (ip), vehicle: saline with Tween-80) is 86 % of control.

Consider `O=C1OC2C3C=CC(CC3)C2O1` (stereo not drawn), for which the T/C reads like this: (dose: 7.5 mg/kg/injection, schedule: Q04DX002 (ip), vehicle: Klucel (hydroxypropylcellulose) (HPC)) 105 % of control; (dose: 15.0 mg/kg/injection, schedule: Q01DX001 (ip), vehicle: carboxymethylcellulose (CMC)) 101 % of control; (dose: 15.0 mg/kg/injection, schedule: Q04DX002 (ip), vehicle: Klucel (hydroxypropylcellulose) (HPC)) 99 % of control; (dose: 30.0 mg/kg/injection, schedule: Q01DX001 (ip), vehicle: carboxymethylcellulose (CMC)) 114 % of control; (dose: 30.0 mg/kg/injection, schedule: Q04DX002 (ip), vehicle: Klucel (hydroxypropylcellulose) (HPC)) 96 % of control.

Turning to `O=C(O)c1ccc(F)c(F)c1`, the T/C is, setting by setting: (dose: 100.0 mg/kg/injection, schedule: Q04DX002 (ip), vehicle: other) 110 % of control; (dose: 200.0 mg/kg/injection, schedule: Q04DX002 (ip), vehicle: other) 115 % of control; (dose: 400.0 mg/kg/injection, schedule: Q04DX002 (ip), vehicle: other) 107 % of control.

For the molecule `O=S(=O)(Cl)c1ccccc1S(=O)(=O)Cl`, the T/C by setting is: under setting [1], 95 % of control; under setting [2], 93 % of control; under setting [3], 86 % of control.

On to `CC(=O)NCc1cc(C)c(C)cc1C`, for which the T/C runs as follows: under setting [4], 100 % of control; under setting [1], 101 % of control; under setting [5], 104 % of control; under setting [2], 97 % of control; under setting [6], 96 % of control; under setting [3], 109 % of control.

`Fc1ccc2[nH]c3c(c2c1)C[P+](Cc1cccc2ccccc12)(c1ccccc1)CC3` (stereo not drawn): the T/C was 98 % of control (dose: 100.0 mg/kg/injection, schedule: Q04DX003 (ip), vehicle: saline) and 88 % of control (dose: 200.0 mg/kg/injection, schedule: Q04DX003 (ip), vehicle: saline).

With `O=C(O)C1Cc2c([nH]c3ccccc23)C(c2ccccc2)N1` (stereo not drawn), the T/C under setting [7] is 96 % of control; the T/C under setting [8] is 104 % of control; the T/C under setting [9] was 94 % of control; the T/C under setting [10] was 102 % of control; the T/C under setting [11] was 97 % of control; the T/C under setting [12] was 96 % of control.

For the molecule `O=[N+]([O-])c1ccc(NC(=S)NS(=O)(=O)c2ccccc2)c(Cl)c1`, the T/C under setting [4] was 97 % of control, the T/C under setting [5] is 97 % of control and the T/C under setting [6] was 88 % of control.

With `CCC(=O)c1cc(Cl)ccc1O`, the T/C runs as follows: (dose: 100.0 mg/kg/injection, schedule: Q01DX009 (ip), vehicle: other) 100 % of control; (dose: 200.0 mg/kg/injection, schedule: Q01DX009 (ip), vehicle: other) 104 % of control; (dose: 400.0 mg/kg/injection, schedule: Q01DX009 (ip), vehicle: other) 102 % of control.

Take `CC(CCc1ccccc1)N(C)C(=O)CNC(=O)CN1C(=O)c2ccccc2C1=O` (stereo not drawn): the T/C by setting is: (dose: 100.0 mg/kg/injection, schedule: Q01DX001 (ip), vehicle: saline) 96 % of control; (dose: 200.0 mg/kg/injection, schedule: Q01DX001 (ip), vehicle: saline) 92 % of control.

As to `COc1cccc(CCC(=O)O)c1`, the T/C reads like this: (dose: 100.0 mg/kg/injection, schedule: Q01DX009 (ip), vehicle: gum acacia) 107 % of control; (dose: 100.0 mg/kg/injection, schedule: Q04DX003 (ip), vehicle: gum acacia) 104 % of control; (dose: 200.0 mg/kg/injection, schedule: Q01DX009 (ip), vehicle: gum acacia) 107 % of control; (dose: 200.0 mg/kg/injection, schedule: Q04DX003 (ip), vehicle: gum acacia) 102 % of control; (dose: 400.0 mg/kg/injection, schedule: Q01DX009 (ip), vehicle: gum acacia) 98 % of control; (dose: 400.0 mg/kg/injection, schedule: Q04DX003 (ip), vehicle: gum acacia) 96 % of control.

On to `Cc1ccccc1N=Nc1c(O)n(-c2ccccc2Cl)c(=S)n(-c2ccccc2)c1=O`, for which the T/C (dose: 50.0 mg/kg/injection, schedule: Q01DX001 (ip), vehicle: Klucel (hydroxypropylcellulose) (HPC)) was 98 % of control; the T/C (dose: 100.0 mg/kg/injection, schedule: Q01DX001 (ip), vehicle: Klucel (hydroxypropylcellulose) (HPC)) is 100 % of control; the T/C (dose: 200.0 mg/kg/injection, schedule: Q01DX001 (ip), vehicle: Klucel (hydroxypropylcellulose) (HPC)) is 96 % of control.

Consider `c1ccc2c(c1)nnn2-c1ccncc1`, for which the T/C runs as follows: (dose: 50.0 mg/kg/injection, schedule: Q01DX009 (ip), vehicle: saline with Tween-80) 92 % of control; under setting [7], 98 % of control; under setting [9], 90 % of control.

For `N=C(N)SCCSC(=N)N`, under “dose: 100.0 mg/kg/injection, schedule: Q04DX003 (ip), vehicle: saline sonified”, the T/C is 93 % of control.

Turning to `CCCCCCCCCCCCCCCCCCNC(=O)NCCc1ccccc1`, the T/C is, setting by setting: (dose: 100.0 mg/kg/injection, schedule: Q04DX002 (ip), vehicle: Klucel (hydroxypropylcellulose) (HPC)) 105 % of control; (dose: 200.0 mg/kg/injection, schedule: Q04DX002 (ip), vehicle: Klucel (hydroxypropylcellulose) (HPC)) 99 % of control; (dose: 400.0 mg/kg/injection, schedule: Q04DX002 (ip), vehicle: Klucel (hydroxypropylcellulose) (HPC)) 92 % of control.

With `COC(=O)C(CSCSC)NC(=O)NC1CCCCC1` (stereo not drawn), the T/C under setting [7] was 91 % of control; the T/C under setting [8] is 102 % of control; the T/C under setting [9] is 91 % of control; the T/C under setting [10] is 89 % of control; the T/C under setting [11] was 91 % of control; the T/C under setting [12] is 91 % of control.

Regarding `COc1ccc(CNCCC(=O)O)cc1OC`, the T/C by setting is: (dose: 50.0 mg/kg/injection, schedule: Q01DX001 (ip), vehicle: carboxymethylcellulose (CMC)) 107 % of control; (dose: 100.0 mg/kg/injection, schedule: Q01DX001 (ip), vehicle: carboxymethylcellulose (CMC)) 100 % of control; (dose: 200.0 mg/kg/injection, schedule: Q01DX001 (ip), vehicle: carboxymethylcellulose (CMC)) 105 % of control; (dose: 400.0 mg/kg/injection, schedule: Q01DX001 (ip), vehicle: carboxymethylcellulose (CMC)) 105 % of control.

In the case of `CN(C)C(=S)Oc1c(Cl)cc(Cl)cc1S(=O)(=O)F`, the T/C reads like this: under setting [1], 104 % of control; under setting [2], 98 % of control; under setting [3], 98 % of control.

In the case of `O=[N+]([O-])c1ccc(C#CS(=O)(=O)c2ccccc2)cc1`, the T/C runs as follows: (dose: 50.0 mg/kg/injection, schedule: Q01DX009 (ip), vehicle: saline) 104 % of control; (dose: 100.0 mg/kg/injection, schedule: Q01DX009 (ip), vehicle: saline) 96 % of control; (dose: 200.0 mg/kg/injection, schedule: Q01DX009 (ip), vehicle: saline) 96 % of control.

With `CN(C)C(=O)c1ccc(NC(=O)N(CCCl)N=O)cc1`, the T/C is, setting by setting: (dose: 0.5 mg/kg/injection, schedule: Q01DX001 (ip), vehicle: other) 102 % of control; (dose: 1.0 mg/kg/injection, schedule: Q01DX001 (ip), vehicle: other) 120 % of control; (dose: 2.0 mg/kg/injection, schedule: Q01DX001 (ip), vehicle: other) 150 % of control; (dose: 8.0 mg/kg/injection, schedule: Q01DX001 (ip), vehicle: other) 182 % of control; (dose: 16.0 mg/kg/injection, schedule: Q01DX001 (ip), vehicle: other) 286 % of control; (dose: 31.0 mg/kg/injection, schedule: Q01DX001 (ip), vehicle: other) 88 % of control.

As for `Cc1cc(CCN)c(C)c2c1sc1ccccc12`, under “dose: 75.0 mg/kg/injection, schedule: Q01DX001 (ip), vehicle: saline”, the T/C is 89 % of control.

For the molecule `CC(C)(O)C#N`, the T/C is 108 % of control (dose: 5.0 mg/kg/injection, schedule: Q01DX001 (ip), vehicle: saline); 102 % of control (dose: 10.0 mg/kg/injection, schedule: Q01DX001 (ip), vehicle: saline); 104 % of control (dose: 15.0 mg/kg/injection, schedule: Q01DX001 (ip), vehicle: saline).
